This data set can be described thus: activity coefficient (dimensionless); of the first substance listed, at infinite dilution; xn = mol fraction of the nth substance listed. The conditions noted are these: 101 kPa, Liquid, Chromatography, x1 = 0.

Numbers after ± are expanded uncertainties.

As for `c1ccncc1` [pyridine] + CCCCCC[N+]1(C)CCCC1.O=S(=O)([N-]S(=O)(=O)C(F)(F)F)C(F)(F)F, the activity coefficient reads like this: (322.9 K) 0.52 ± 0.06; (333 K) 0.52 ± 0.06; (343.1 K) 0.53 ± 0.06.

Regarding `ClC(Cl)(Cl)Cl` [tetrachloromethane] + CCCCCCCCCC[N+]1(C)CCCC1.O=S(=O)([N-]S(=O)(=O)C(F)(F)F)C(F)(F)F, the activity coefficient is, setting by setting: (322.6 K) 1.32 ± 0.14; (332.5 K) 1.12 ± 0.11; (342.8 K) 1.31 ± 0.13.

As for `ClC(Cl)(Cl)Cl` [tetrachloromethane] + CCCCCCCC[N+]1(C)CCCC1.O=S(=O)([N-]S(=O)(=O)C(F)(F)F)C(F)(F)F, the activity coefficient (323 K) worked out at 1.39 ± 0.14, the activity coefficient (333 K) was 1.3 ± 0.13 and the activity coefficient (343.1 K) turned out to be 1.15 ± 0.12.

Turning to `ClC(Cl)(Cl)Cl` [tetrachloromethane] + CCCCCC[N+]1(C)CCCC1.O=S(=O)([N-]S(=O)(=O)C(F)(F)F)C(F)(F)F, the activity coefficient (322.9 K) came out at 1.78 ± 0.19, the activity coefficient (333 K) was found to be 1.85 ± 0.19 and the activity coefficient (343.1 K) came to 1.86 ± 0.19.

As for `c1ccsc1` [thiophene] + CCCCCCCCCC[N+]1(C)CCCC1.O=S(=O)([N-]S(=O)(=O)C(F)(F)F)C(F)(F)F, the activity coefficient runs as follows: (322.6 K) 0.6 ± 0.06; (332.5 K) 0.6 ± 0.06; (342.8 K) 0.61 ± 0.07.

For `c1ccsc1` [thiophene] + CCCCCCCC[N+]1(C)CCCC1.O=S(=O)([N-]S(=O)(=O)C(F)(F)F)C(F)(F)F, the activity coefficient (323 K) was found to be 0.57 ± 0.06, the activity coefficient (333 K) turned out to be 0.55 ± 0.06 and the activity coefficient (343.1 K) is 0.53 ± 0.06.

With `c1ccsc1` [thiophene] + CCCCCC[N+]1(C)CCCC1.O=S(=O)([N-]S(=O)(=O)C(F)(F)F)C(F)(F)F, the activity coefficient runs as follows: (322.9 K) 0.7 ± 0.07; (333 K) 0.71 ± 0.07; (343.1 K) 0.72 ± 0.08.

As to `Cc1ccccc1` [toluene] + CCCCCCCCCC[N+]1(C)CCCC1.O=S(=O)([N-]S(=O)(=O)C(F)(F)F)C(F)(F)F, the activity coefficient was found to be 0.77 ± 0.08 (322.6 K), 0.78 ± 0.08 (332.5 K) and 0.8 ± 0.08 (342.8 K).

Turning to `Cc1ccccc1` [toluene] + CCCCCCCC[N+]1(C)CCCC1.O=S(=O)([N-]S(=O)(=O)C(F)(F)F)C(F)(F)F, the activity coefficient (323 K) is 0.76 ± 0.08, the activity coefficient (333 K) came to 0.78 ± 0.08 and the activity coefficient (343.1 K) stood at 0.74 ± 0.08.

In the case of `Cc1ccccc1` [toluene] + CCCCCC[N+]1(C)CCCC1.O=S(=O)([N-]S(=O)(=O)C(F)(F)F)C(F)(F)F, the activity coefficient (322.9 K) came out at 1 ± 0.1, the activity coefficient (333 K) was determined as 1.01 ± 0.1 and the activity coefficient (343.1 K) was 1.04 ± 0.11.

With `ClC(Cl)Cl` [trichloromethane] + CCCCCCCCCC[N+]1(C)CCCC1.O=S(=O)([N-]S(=O)(=O)C(F)(F)F)C(F)(F)F, the activity coefficient was 0.39 ± 0.05 (322.6 K), 0.39 ± 0.05 (332.5 K) and 0.41 ± 0.05 (342.8 K).

Turning to `ClC(Cl)Cl` [trichloromethane] + CCCCCCCC[N+]1(C)CCCC1.O=S(=O)([N-]S(=O)(=O)C(F)(F)F)C(F)(F)F, the activity coefficient was determined as 0.56 ± 0.06 (323 K), 0.58 ± 0.06 (333 K) and 0.53 ± 0.06 (343.1 K).

Consider `ClC(Cl)Cl` [trichloromethane] + CCCCCC[N+]1(C)CCCC1.O=S(=O)([N-]S(=O)(=O)C(F)(F)F)C(F)(F)F, for which the activity coefficient reads like this: (322.9 K) 0.68 ± 0.07; (333 K) 0.72 ± 0.08; (343.1 K) 0.74 ± 0.08.

As for `CCCCCCCCCCC` [undecane] + CCCCCCCCCC[N+]1(C)CCCC1.O=S(=O)([N-]S(=O)(=O)C(F)(F)F)C(F)(F)F, the activity coefficient (322.6 K) came to 11.7 ± 1.2, the activity coefficient (332.5 K) was 11.2 ± 1.2 and the activity coefficient (342.8 K) was 10.7 ± 1.1.

Turning to `CCCCCCCCCCC` [undecane] + CCCCCCCC[N+]1(C)CCCC1.O=S(=O)([N-]S(=O)(=O)C(F)(F)F)C(F)(F)F, the activity coefficient reads like this: (323 K) 16.8 ± 1.8; (333 K) 15.6 ± 1.6; (343.1 K) 14.6 ± 1.5.

For `CCCCCCCCCCC` [undecane] + CCCCCC[N+]1(C)CCCC1.O=S(=O)([N-]S(=O)(=O)C(F)(F)F)C(F)(F)F, the activity coefficient reads like this: (322.9 K) 34.4 ± 3.6; (333 K) 31 ± 3.3; (343.1 K) 30.1 ± 3.2.

(Values after the NIST ThermoML archive (doi:10.1021/je300692s).)
